# Results published in ChEMBL document CHEMBL5244280, “Evodiamine Lowers Blood Lipids by Up-Regulating the PPARγ/ABCG1 Pathway in High-Fat-Diet-Fed Mice” (J Nat Prod, 2021).
# Active and inactive are the calls of the source. The rule behind the calls is not given here.
# Assays:
# [1] = Toxicity in high fat diet fed hyperlipidemic ICR mouse model assessed as ratio of liver weight to body weight at 10 mg/kg, ig administered daily via gavage for 8 weeks (reference value: 4.23 +/-0.79); assay type: organism-based; details: in vivo, po, 1344 h
# [2] = Toxicity in high fat diet fed hyperlipidemic ICR mouse model assessed as ratio of spleen weight to body weight at 10 mg/kg, ig administered daily via gavage for 8 weeks (reference value: 0.43 +/-0.11); assay type: organism-based; details: in vivo, po, 1344 h
# Mus musculus [3] = test: Upregulation of SR-B1 protein expression in liver of normal diet fed ICR mouse at 10 mg/kg, ig administered daily via gavage for 8 weeks by western blotting analysis; assay type: functional, organism-based
# [4] = Toxicity in high fat diet fed hyperlipidemic ICR mouse model assessed as ratio of lung weight to body weight at 10 mg/kg, ig administered daily via gavage for 8 weeks (reference value: 0.93 +/-0.28); assay type: organism-based; details: in vivo, po, 1344 h
# Mus musculus [5] = test: Upregulation of SR-B1 protein expression in liver of high fat diet fed hyperlipidemic ICR mouse model at 10 mg/kg, ig administered daily via gavage for 8 weeks by western blotting analysis; assay type: functional, organism-based
# Mus musculus [6] = test: Upregulation of NPC1L1 protein expression in liver of high fat diet fed hyperlipidemic ICR mouse model at 10 mg/kg, ig administered daily via gavage for 8 weeks by western blotting analysis; assay type: functional, organism-based
# [7] = Toxicity in normal diet fed ICR mouse assessed as body weight loss at 10 mg/kg, ig administered daily via gavage for 8 weeks; assay type: organism-based; details: in vivo, po, 1344 h
# Mus musculus [8] = test: Upregulation of ABCA1 protein expression in liver of high fat diet fed hyperlipidemic ICR mouse model at 10 mg/kg, ig administered daily via gavage for 8 weeks by western blotting analysis; assay type: functional, organism-based
# Mus musculus [9] = test: Upregulation of ABCG8 protein expression in liver of high fat diet fed hyperlipidemic ICR mouse model at 10 mg/kg, ig administered daily via gavage for 8 weeks by western blotting analysis; assay type: functional, organism-based
# Mus musculus [10] = test: Protection against hyperlipidemia in high fat diet-fed hyperlipidemic ICR mouse model assessed as serum HDL-C content at 20 mg/kg, ig administered daily via gavage for 8 weeks by spectrophotometric analysis; assay type: functional, organism-based
# HEK293 = test: Agonist activity at human PPAR-beta expressed in HEK293 cells co-transfected with luciferase reporter plasmid assessed as receptor transactivation at 10 uM incubated for 18 hrs by luciferase reporter gene assay relative to control; assay type: cell-based
# [11] = Toxicity in normal diet fed ICR mouse assessed as liver histological changes at 10 mg/kg, ig administered daily via gavage for 8 weeks by Hematoxylin and eosin staining based analysis; assay type: organism-based; details: in vivo, po, 1344 h
# Mus musculus [12] = test: Upregulation of ABCG1 protein expression in liver of high fat diet fed hyperlipidemic ICR mouse model at 10 mg/kg, ig administered daily via gavage for 8 weeks by western blotting analysis; assay type: functional, organism-based
# Mus musculus [13] = test: Protection against hyperlipidemia in high fat diet-fed hyperlipidemic ICR mouse model assessed as reduction in serum LDL-C content at 10 mg/kg, ig administered daily via gavage for 8 weeks by spectrophotometric analysis; assay type: functional; details: po, 1344 h
# Mus musculus [14] = test: Protection against hyperlipidemia in high fat diet-fed hyperlipidemic ICR mouse model assessed as reduction in serum total cholesterol content at 20 mg/kg, ig administered daily via gavage for 8 weeks by spectrophotometric analysis; assay type: functional, organism-based
# Mus musculus [15] = test: Effect on food intake in high fat diet-fed hyperlipidemic ICR mouse model at 10 mg/kg, ig administered daily via gavage for 8 weeks; assay type: functional, organism-based
# [16] = Toxicity in normal diet fed ICR mouse assessed as ratio of liver weight to body weight at 10 mg/kg, ig administered daily via gavage for 8 weeks (reference value: 3.74 +/-0.53); assay type: organism-based; details: in vivo, po, 1344 h
# Mus musculus [17] = test: Upregulation of PPAR-gamma protein expression in liver of high fat diet fed hyperlipidemic ICR mouse model at 10 to 20 mg/kg, ig administered daily via gavage for 8 weeks by western blotting analysis; assay type: functional, organism-based; details: dose 10-20 mg/kg
# [18] = Toxicity against normal diet-fed ICR mouse assessed as effect on plasma total cholesterol content at 10 mg/kg, ig administered daily via gavage for 8 weeks by spectrophotometric analysis; assay type: organism-based; details: in vivo, po, 1344 h
# Mus musculus [19] = test: Upregulation of ABCG5 mRNA expression in liver of high fat diet fed hyperlipidemic ICR mouse model at 10 mg/kg, ig administered daily via gavage for 8 weeks by qPCR analysis; assay type: functional, organism-based
# Mus musculus [20] = test: Upregulation of ABCG5 protein expression in liver of high fat diet fed hyperlipidemic ICR mouse model at 10 mg/kg, ig administered daily via gavage for 8 weeks by western blotting analysis; assay type: functional, organism-based
# Mus musculus [21] = test: Protection against hyperlipidemia in high fat diet-fed hyperlipidemic ICR mouse model assessed as reduction in serum triglyceride content at 20 mg/kg, ig administered daily via gavage for 8 weeks by spectrophotometric analysis; assay type: functional, organism-based
# [22] = biological target: T1, Peroxisome proliferator-activated receptor gamma (Homo sapiens) (UniProt P37231); test: Agonist activity at human PPAR-gamma expressed in HEK293 cells co-transfected with luciferase reporter plasmid assessed as receptor transactivation at 10 uM incubated for 18 hrs by luciferase reporter gene assay relative to control; assay type: cell-based
# T1 sequence (whole entry): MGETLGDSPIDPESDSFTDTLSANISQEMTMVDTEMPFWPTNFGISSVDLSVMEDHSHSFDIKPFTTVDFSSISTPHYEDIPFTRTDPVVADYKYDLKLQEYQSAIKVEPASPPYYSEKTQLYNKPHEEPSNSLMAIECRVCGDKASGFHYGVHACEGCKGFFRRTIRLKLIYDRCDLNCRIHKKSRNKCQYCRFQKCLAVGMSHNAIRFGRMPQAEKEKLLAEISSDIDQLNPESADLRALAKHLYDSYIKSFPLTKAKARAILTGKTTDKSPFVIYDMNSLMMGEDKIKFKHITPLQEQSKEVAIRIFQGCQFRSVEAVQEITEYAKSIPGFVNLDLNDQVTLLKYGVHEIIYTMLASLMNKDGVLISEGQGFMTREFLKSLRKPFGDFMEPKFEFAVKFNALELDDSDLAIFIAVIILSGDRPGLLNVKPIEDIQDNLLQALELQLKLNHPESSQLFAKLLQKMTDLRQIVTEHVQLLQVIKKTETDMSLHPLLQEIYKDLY
# Mus musculus [23] = test: Protection against hyperlipidemia in high fat diet-fed hyperlipidemic ICR mouse model assessed as reduction in serum total cholesterol content at 10 mg/kg, ig administered daily via gavage for 8 weeks by spectrophotometric analysis; assay type: functional; details: po, 1344 h
# Mus musculus [24] = test: Protection against hyperlipidemia in high fat diet-fed hyperlipidemic ICR mouse model assessed as reduction in hepatic total cholesterol content at 20 mg/kg, ig administered daily via gavage for 8 weeks by colorimetric assay; assay type: functional, organism-based
# [25] = Toxicity in high fat diet fed hyperlipidemic ICR mouse model assessed as ratio of stomach weight to body weight at 10 mg/kg, ig administered daily via gavage for 8 weeks (reference value: 1.41 +/-0.34); assay type: organism-based; details: in vivo, po, 1344 h
# [26] = Toxicity against normal diet-fed ICR mouse assessed as effect on plasma HDL-C content at 10 mg/kg, ig administered daily via gavage for 8 weeks by spectrophotometric analysis; assay type: organism-based; details: in vivo, po, 1344 h
# Mus musculus [27] = test: Protection against hyperlipidemia in high fat diet-fed hyperlipidemic ICR mouse model assessed as reduction in hepatic total cholesterol content at 10 mg/kg, ig administered daily via gavage for 8 weeks by colorimetric assay; assay type: functional; details: po, 1344 h
smiles,measurement,setting,value
CN1c2ccccc2C(=O)N2CCc3c([nH]c4ccccc34)C21 (stereo not drawn),Ratio,[1],3.85
same,Ratio,[2],0.37
same,Activity,Mus musculus [3],Active
same,Ratio,[4],0.81
same,Activity,Mus musculus [5],Active
same,Activity,Mus musculus [6],inactive
same,Activity,[7],Toxic
same,Activity,Mus musculus [8],inactive
same,Activity,Mus musculus [9],inactive
same,Activity,Mus musculus [10],inactive
same,fold change (FC),HEK293,1.53
same,Activity,[11],Non-Toxic
same,Activity,Mus musculus [12],Active
same,inhibition in vivo at 10 mg/kg,Mus musculus [13],65.1%
same,Activity,Mus musculus [14],Active
same,Activity,Mus musculus [15],inactive
same,Ratio,[16],3.64
same,Activity,Mus musculus [17],Active
same,Activity,[18],Non-Toxic
same,Activity,Mus musculus [19],inactive
same,Activity,Mus musculus [20],inactive
same,Activity,Mus musculus [21],Active
same,fold change (FC),[22],0.49
same,inhibition in vivo at 10 mg/kg,Mus musculus [23],50%
same,Activity,Mus musculus [24],Active
same,Ratio,[25],1.22
same,Activity,[26],Non-Toxic
same,inhibition in vivo at 10 mg/kg,Mus musculus [27],42.3%
